{"source": "patent US20160243136A1", "about": "“PHARMACEUTICAL FORMULATIONS CONTAINING MITOCHONDRIALLY TARGETED ANTIOXIDANTS” (Mitotech SA, priority 2013, published 2016)", "key": {"[1]": {"tested_on": "renal tubular cells (RTC)", "assay": "In vitro inflammation model: renal tubular cells co-cultivated with bacterial lysate-activated leukocytes", "assay_type": "cell-based, rat", "method": "Kidneys from 1-3 day old rats were excised under aseptic conditions. The tissue was blended and dissociated by collagenase treatment (0.5%, 30 min at 37° C.). The final suspension was centrifuged for 5 min at 50 g. The pellet was resuspended in about 10 ml of DMEM/F12 (Gibco, USA) supplemented with 10% FCS (Gibco, USA) and kept for 2 min, after which the supernatant was transferred to another tube and the pellet was repeatedly resuspended. After 10 min, the renal tubules were pelleted and dissociated cells remaining in the suspension were discarded. The pellet was resuspended in DMEM/F12 with 10% FCS and seeded onto 24-well plates or onto coverslips placed in 35-mm glass-bottom Petri dishes.\nE. coli strain No. 85 was cultured overnight in a cultivation medium containing 1% tryptone, 0.5% yeast extract and 1% NaCl (Sigma-Aldrich, USA). The medium, containing roughly 10^9 colony-forming units (CFU) per ml, was pelleted at 300 g for 3 min. The bacterial lysate was prepared by diluting 30 ml of an overnight (ON) culture and diluting the precipitate in 3 ml of 0.9% NaCl followed by autoclaving for 1.5 hr at 120° C.\n5 ml heparinized blood collected from the jugular vein of adult male rats was carefully layered over 5 ml of Ficoll-Urografin (density of 1.077 g/cm^3), and centrifuged for 30 min at 200 g. This procedure results in erythrocyte pelleting, while the mononuclear fraction of leukocytes forms an interphase ring on the Ficoll surface, which was carefully collected. Leukocytes were transferred into another tube and centrifuged for 3 min at 200 g. The resultant pellet was resuspended in 5 ml of DMEM/F12. After cell counting in a hemocytometer, the cells were diluted to a final concentration of about 1×10^5 cells per ml.\nIn a two-day old renal cell culture, the medium was substituted with DMEM/F12 (400 μl per well, 1600 μl per dish), supplemented with (depending on the purpose): GSK-3β inhibitor LiCl (9 mM) (Sigma-Aldrich, USA), water-soluble antioxidant Trolox (50 μM, 100 μM) (Sigma-Aldrich, USA), MTAs 10-(6-plastoquinonyl)decyl-triphenylphosphonium (SkQ1), synthesized according to Antonenko et al. (2008) Biochemistry (Mosc) 73:1273-87), 10 nM, 100 nM), and 10-(6′-plastoquinonyl) decylrhodamine 19 SkQR1), synthesized according to Antonenko (2008), (1 nM, 10 nM, or 100 nM). Renal cells were incubated for 2 hr in this medium, followed by supplementation with leukocytes or neutrophils in DMEM/F12, or DMEM/F12, alone, in the control sample (400 μl per well, 1600 μl per dish). Simultaneously, the bacterial lysate or lipopolysaccharide (100 ng/ml, LPS, Sigma-Aldrich, USA) solution in DMEM/F12 and DMEM/F12 alone in the control sample (100 μl per well, 400 μl per dish) were added. Renal cells, leukocytes (neutrophils) were co-cultivated for 24 or 48 hr with bacterial lysate or LPS. Cell death (both necrotic and apoptotic) rate was evaluated using Annexin-V FITC Kit (Invitrogen, USA).\nThe ROS-sensitive fluorescent probe 2,7-DCF-DA (Molecular Probes, USA) dissolved in DMEM/F12 without bicarbonate (final concentration 10 μM) was added to renal cells (500 μl per well of 24-well plate, 2 ml per dish) and incubated for 15 min at 37° C. followed by a wash with DMEM/F12 without bicarbonate. MDA was determined as in (Mihara and Uchiyama (1978) Anal. Biochem. 86:271-8). Fluorescent probe, DAF-2-DA (Calbiochem, San Diego, Calif., USA) was used for NO determination in living cells. The procedure was the same as for 2,7-DCF-DA. The nitrite/nitrate concentration (as products of NO oxidation) in culture media was determined using Nitrite/Nitrate Assay Kit (Sigma-Aldrich, USA). TNFα was determined using the kit Rat TNFα ELISA Ready-SET-Go (Ebioscience, USA).\nRenal cells were imaged with an LSM510 inverted confocal microscope (Carl Zeiss Inc., Jena, Germany) with excitation at 488 nm and emission collected at 500 nm-530 nm with a pinhole diameter of 150 μm. Images were processed using ImageJ software (NIH, Bethesda, Md., USA)."}, "[2]": {"tested_on": "Human endothelial cell line EA.hy926", "assay": "High-glucose endothelium damage, immunoblotting detection of VE-cadherin", "assay_type": "cell-based", "settings": "2 nM and 20 nM SkQ1 pre-incubation 4 d; 45 mM D-glucose 2 d; vs vehicle control", "source_text": "Human endothelial cell line EA.hy926 (ATCC Collection; catalog number CRL-2922) was used as a model of the endothelium vessel damage occurring during inflammatory process and/or diabetes. This cell line is similar to primary HUVEC cell line (Edgell et al. (1983) PNAS, 80(12):3734-7; Edgell et al. (1990) In Vitro Cell Dev. Biol., 26(12):1167-72) and widely used as a relevant model for inflammation studies (Riesbeck et al. (1998) Clin. Vaccine Immunol., 5:5675-682).\nAccordingly, human endothelial cells EA.hy926 were pre-incubated with 2 nM and 20 nM of SkQ1 solution in Dulbecco's Modified Eagle's Medium (DMEM) supplemented with 10% of fetal serum (Example 1) for 4 d. Cells were then incubated 2 d with DMEM medium containing 1% FBS and 5 mM D-glucose. The cells were then incubated 2 d with 45 mM D-glucose and were then used for immunoblotting detection of VE-cadherin."}}}
{"smiles": "CC1=C(C)C(=O)C(CCCCCCCCCC[P+](c2ccccc2)(c2ccccc2)c2ccccc2)=CC1=O", "note": "[SkQ1, 10-(6-plastoquinonyl)decyl-triphenylphosphonium]", "values": [{"measurement": "ROS production in renal cells (DCF fluorescence)", "setting": "[1]; 10 nM, pretreatment 2 hr, co-cultivation with activated leukocytes", "value": "suppression of ROS production after co-cultivation with activated leukocytes to levels close to those observed on controls"}, {"measurement": "renal cell death (Annexin V-positive)", "setting": "[1]; 48 hr exposure to activated leukocytes, pre-incubation with drug", "value": "more pronounced than that afforded by the traditional water-soluble antioxidant, Trolox"}, {"measurement": "VE-cadherin downregulation induced by high glucose", "setting": "[2]", "value": "prevents"}]}
